Test results reported in US9532967B2, “Use of phenethyl caffeate derivatives in the preparation of a medicament against tumor angiogenesis” (priority 2010, dated 2017).

Assays:
[1] = test system: angiogenesis model by culturing stromal cells and vascular endothlial cells (ECs) together; assay: Tumor angiogenesis mediated by pericytes (stromal cells co-cultured with vascular endothlial cells); format: cell-based; conditions: for Length of the formed vessel network (Total Tube Length, TL, n = 8): control 436; for effect on tumor angiogenesis mediated by pericytes: concentrations of 50-100 μM, result in words
Experimental: We constructed an angiogenesis model by culturing stromal cells and vascular endothlial cells (ECs) together. Stromal cells and endothlial cells were graciously provided by Vascular Biology Medical Center of Medical School of the State University in Indiana. The stromal cells were implanted into a cell culture dish, maintaining cell density of 6×10^6/cm^2, and ECs were implanted on the trophoblast cells of the stromal cells after the stromal cells were incubated in the EBM-2/5% FBS culture medium for 3 hours, with cell density of ECs reaching 1×10^6/cm^2. The two kinds of cells were co-cultured in EBM-2/5% FBS culture medium for six days, then the formation of tubular vessels was observed, and EC vessels were labeled through CD31 fluorescence staining and horseradish peroxidase staining.
Then, the inhibition of compounds phenethyl caffeate and 3,4-diacetyl phenethyl caffeate with concentrations of 50-100 μM on tumor angiogenesis mediated by pericytes was studied.

[2] = test system: human hepatocellular carcinoma BEL-7402 cell lines; assay: Growth of tumors of BALB/c nude mice inoculated with BEL-7402 cells in vivo; conditions: 20 mg/kg by gavage, 3 weeks
Experimental: First, 1×10^6 cells of human hepatocellular carcinoma BEL-7402 cell lines were injected subcutaneously (sc) into the forelimbs of BALB/c male nude mice, and the mice with tumor were killed after the tumor was formed, the skin of the mice was cut off, and the complete tumor tissue was separated and removed, and then immersed into physiological saline and cut into pieces with diameter of 2 mm. The tumor tissue pieces were implanted subcutaneously into the forelimbs of nude mice in another group for drug experiments. The nude mice with tumor were randomly divided equally into an experimental group and control group, with 10 mice in each group. […] Experimental data, such as tumor size (i.e., long diameter a and short diameter b), experimental animal weight (g), etc., were recorded regularly, and photographs were taken. Measurement result was recorded every time, and the tumor volume and the ratio of tumor volume to tumor weight were calculated for each animal based on the measurement results.
Formula for calculating the tumor volume is: v=a×b2/2 (a represents the long diameter of the tumor and b represents the short diameter of the tumor, which are in unit of mm; and V is calculated in unit of mm^3). […]

[3] = test system: vessel network model formed by culturing adult stem cells and vascular endothlial cells together; assay: Formation of vessel network in vitro (adult stem cells co-cultured with vascular endothlial cells); format: cell-based, human; conditions: for lengths of the formed vessel networks (Total Tube Length, TL): co-culture six days
Experimental: First, we constructed a vessel network model formed by culturing adult stem cells and vascular endothlial cells together. Adult stem cells have the function of differentiating into pericytes, and can secrete cytokines required for angiogenesis to promote the formation of new vessels. The isolated and cultured adult stem cells were cultured using EGM medium for 3-6 generations to be used. The isolated and cultured human endothlial cells were derived from the cord blood of healthy infants (38-40 weeks), in which monocytes were removed by gradient centrifugation, and the cells were cultured in EGM medium to obtain primary vascular endothlial cells, and 4-8 generations were applied after passage. The adult stem cells were implanted into a cell culture dish, maintaining cell density of 6×10^6/cm^2, and the vascular endothlial cells were implanted on the trophoblast cells of the adult stem cells after the adult stem cells were incubated at 37° C., 5% CO2 for 3 hours, and the cell density of the vascular endothlial cells reached 1×10^6/cm^2. The two kinds of cells were co-cultured for six days, then the formation of tubular networks was observed, and the new vessel networks were labeled through CD31 fluorescence staining and horseradish peroxidase staining.
Different doses of 3,4-diacetyl phenethyl caffeate (prepared according to conventional chemical method by the Laboratory of Peking University Health Science center) were co-cultured with the in vitro vessel network system. […] However, there is no significant difference among the total numbers of ECs of CD31+ in respective groups. The total numbers of ECs in the control group, DMSO group, 5 μm group, 10 μm group, 20 μm group, 50 μm group and 100 μm group are 7.52±1.24/mm^2, 8.66±1.31/mm^2, 8.87±1.59/mm^2, 6.0±1.72/mm^2, 6.22±1.42/mm^2, […], 8.33±0.79/mm^2 respectively, and there is no significant difference among respective groups through analysis.

O=C(/C=C/c1ccc(O)c(O)c1)OCCc1ccccc1 [phenethyl caffeate]
Length of the formed vessel network (Total Tube Length, TL, n = 8) ([1]; 50 μM): 332 ± 24 | Length of the formed vessel network (Total Tube Length, TL, n = 8) ([1]; 100 μM): 314 ± 27 | effect on tumor angiogenesis mediated by pericytes [1]: no inhibitory effect

CC(=O)Oc1ccc(/C=C/C(=O)OCCc2ccccc2)cc1OC(C)=O [3,4-diacetyl phenethyl caffeate]
effect on the growth of tumors ([2]; result in words): inhibitory effect | average tumor volume of the mice ([2]; six days every week, FIG. 2): maintained at the original level, with no significant changes | numbers of branchs (NB) of the vessels ([3]; 50 μM group): 0.13±0.026 /mm^2 | lengths of the formed vessel networks (Total Tube Length, TL) ([3]; 50 μM group): 0.084±0.032 mm/mm^2 | numbers of branchs (NB) of the vessels ([3]; 5 μm group): 6.12±0.48 /mm^2 | total numbers of ECs (CD31+) ([3]; 5 μm group): 8.87±1.59 /mm^2 | lengths of the formed vessel networks (Total Tube Length, TL) ([3]; 5 μm group): 2.802±0.212 mm/mm^2 | numbers of branchs (NB) of the vessels ([3]; 10 μm group): 1.55±0.17 /mm^2 | total numbers of ECs (CD31+) ([3]; 10 μm group): 6.0±1.72 /mm^2 | lengths of the formed vessel networks (Total Tube Length, TL) ([3]; 10 μm group): 0.874±0.117 mm/mm^2 | numbers of branchs (NB) of the vessels ([3]; 20 μm group): 0.50±0.063 /mm^2 | total numbers of ECs (CD31+) ([3]; 20 μm group): 6.22±1.42 /mm^2 | lengths of the formed vessel networks (Total Tube Length, TL) ([3]; 20 μm group): 0.337±0.89 mm/mm^2 | numbers of branchs (NB) of the vessels ([3]; 100 μm group): 0.04±0.001 /mm^2 | total numbers of ECs (CD31+) ([3]; 100 μm group): 8.33±0.79 /mm^2 | lengths of the formed vessel networks (Total Tube Length, TL) ([3]; 100 μm group): 0.0054±0.002 mm/mm^2 | effect on the formation of vessel networks in vitro ([3]; result in words): inhibitory effect | Length of the formed vessel network (Total Tube Length, TL, n = 8) ([1]; 50 μM): 114 ± 20 | Length of the formed vessel network (Total Tube Length, TL, n = 8) ([1]; 100 μM): 20 ± 11 | effect on tumor angiogenesis mediated by pericytes [1]: inhibitory effect | effect on tumor angiogenesis mediated by pericytes ([1]; listed as diacetyl phenethyl caffeate): significant inhibitory effect
